In the supplement of paper PMC10307832:

Experiments:
Assay in all cases: relative viability (nuclei count vs DMSO), 5 days (fraction); higher = more cells survive
Kobe2602 + Trametinib = compound: C1=CC(=CC=C1NC(=S)NNC2=C(C=C(C=C2[N+](=O)[O-])C(F)(F)F)[N+](=O)[O-])F [Kobe2602] + CC(=O)Nc1cccc(-n2c(=O)n(C3CC3)c(=O)c3c(Nc4ccc(I)cc4F)n(C)c(=O)c(C)c32)c1 [Trametinib] (partner 0.02 µM)
How it was run: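 Lung cancer cell lines, seeded in 1536-well plates, were treated the following day by pin tool with a single drug or with five library-drug doses (not always all listed) in √10 steps on top of a fixed anchor-drug dose. Cells were fixed and nuclei stained in one step after 5 days, and nuclei were counted. Relative viability is the nuclei count for treated wells divided by that for vehicle wells, reported as medians of duplicate plates.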

Cabozantinib = compound: COc1cc2nccc(Oc3ccc(NC(=O)C4(C(=O)Nc5ccc(F)cc5)CC4)cc3)c2cc1OC [Cabozantinib]
How it was run: (§1)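 Nuclei counted with MetaXpress define viability as the ratio of treated to vehicle wells, given as a median across plates. The lung cancer cell lines were in 1536-well plates, pinned with five √10-spaced library-drug doses and imaged at 4× after 5 days and Hoechst staining. Plates passed with control CV below 25% and at least one doubling.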

Zosuquidar = compound: O[C@@H](COc1cccc2ncccc12)CN1CCN([C@@H]2c3ccccc3[C@@H]3[C@H](c4ccccc42)C3(F)F)CC1 [Zosuquidar]
How it was run: as §1

Kobe2602 = compound: C1=CC(=CC=C1NC(=S)NNC2=C(C=C(C=C2[N+](=O)[O-])C(F)(F)F)[N+](=O)[O-])F [Kobe2602]
How it was run: as §1

## UMC-11
Kobe2602 + Trametinib; first compound 0.2 µM
  relative viability: 0.716
Kobe2602 + Trametinib; first compound 0.6325 µM
  relative viability: 0.683
Kobe2602 + Trametinib; first compound 2 µM
  relative viability: 0.751
Kobe2602 + Trametinib; first compound 6.325 µM
  relative viability: 0.747
Kobe2602 + Trametinib; first compound 20 µM
  relative viability: 0.668
Cabozantinib; 0.02 µM
  relative viability: 0.989
Cabozantinib; 0.06325 µM
  relative viability: 1.11
Cabozantinib; 0.2 µM
  relative viability: 0.963
Cabozantinib; 0.6325 µM
  relative viability: 1.04
Cabozantinib; 2 µM
  relative viability: 1
Zosuquidar; 0.01 µM
  relative viability: 0.957
Zosuquidar; 0.03162 µM
  relative viability: 1.04
Zosuquidar; 0.1 µM
  relative viability: 0.908
Zosuquidar; 0.3162 µM
  relative viability: 1.11
Zosuquidar; 1 µM
  relative viability: 0.96
Kobe2602; 0.2 µM
  relative viability: 1.05
Kobe2602; 0.6325 µM
  relative viability: 1.01
Kobe2602; 2 µM
  relative viability: 1.06
Kobe2602; 6.325 µM
  relative viability: 0.975
Kobe2602; 20 µM
  relative viability: 1.05
